Results as given in patent US10124012B2, “Method for treatment of hyperglycemia and hyperlipidemia” (priority 2016, dated 2018).
Each block holds one compound with its values, some of them ahead of it.

How the values were obtained:
Assay type in all cases: in vivo, C57BL/6J mice
[1] = tested on: aP2; test: Liver mRNA by semi-quantitative RT-PCR: aP2; conditions: HFD-fed mice, oral gavage once daily 4 weeks, AnK 10, 20, 40, Feno 250, Metf 300 mg/kg/day, vs HF group
Text: (§1) The 4-week old male C57BL/6J mice (total amount n=63) were obtained from the National Laboratory Animal Center (Taipei, Taiwan). After acclimatization for one week, all of the mice were randomly assigned into a control (CON) group and a high-fat diet (HFD) group. […] After HFD feeding for 8 weeks, the HFD group was randomly subdivided into six groups (n=9 per group) receiving different treatments and fed on HFD. […] The HF+AnK1, HF+AnK2, and HF+AnK3 groups are collectively termed AnK-treated HFD groups in the following examples. The CON mice were administered vehicle. All treatments were administered via oral gavage once daily. After administration for 4 weeks, all mice were fasted 12 hours, and blood was collected from the retro-orbital sinus under ether anesthesia. […]
(§2) Total RNA from liver tissue of mice was isolated with a Trizol Reagent (Molecular Research Center, Inc., Cincinnati, Ohio, USA) according to the manufacturer's instructions. The integrity of the extracted total RNA was examined by 2% agarose gel electrophoresis, and the RNA concentration was determined by the ultraviolet (UV) light absorbency at 260 nm and 280 nm (Spectrophotometer U-2800A, Hitachi). […]
(§3) Levels of mRNA of target genes were quantified by semi-quantitative reverse transcription polymerase chain reaction (RT-PCR). […] PCR products were analyzed by 2% agarose gel and stained with ethidium bromide.

[2] = tested on: PPARα; test: Western blotting of hepatic PPARα; conditions: liver; HFD-fed mice; AnK 10, 20, 40, Feno 250, Metf 300 mg/kg/day; vs HF group
Text: as §1, with “anesthesia. At the end of the experiment, the mice were sacrificed via carbon dioxide inhalation.” for “anesthesia.”
About 0.1 g of liver tissue, skeletal muscle, or adipose tissue was used for the homogenate samples. […] The protein concentration in supernatant was determined with a BCA protein assay kit (Thermo Scientific, Rockford, Ill., USA). […] Immunoreactive bands were detected with ECL reagent kit (GE Healthcare BioSciences, Buckinghamshire, UK). The intensity of Western blot signals was analyzed using AlphaEase FC software (Alpha Innotech Corporation, Randburg, South Africa). […]

[3] = tested on: FAS; test: Western blotting of FAS in liver and adipose tissue; conditions: HFD-fed mice, AnK 10, 20, 40, Feno 250, Metf 300 mg/kg/day, vs HF group; for expression levels of FAS (protein): adipose tissue; for FAS expression levels (protein): liver
Text: (§4) The 4-week old male C57BL/6J mice (total amount n=63) were obtained from the National Laboratory Animal Center (Taipei, Taiwan). After acclimatization for one week, all of the mice were randomly assigned into a control (CON) group and a high-fat diet (HFD) group. […] After HFD feeding for 8 weeks, the HFD group was randomly subdivided into six groups (n=9 per group) receiving different treatments and fed on HFD. […] The HF+AnK1, HF+AnK2, and HF+AnK3 groups are collectively termed AnK-treated HFD groups in the following examples. The CON mice were administered vehicle. All treatments were administered via oral gavage once daily. After administration for 4 weeks, all mice were fasted 12 hours, and blood was collected from the retro-orbital sinus under ether anesthesia. At the end of the experiment, the mice were sacrificed via carbon dioxide inhalation. Liver, adipose tissue, and skeletal muscle were collected and immediately stored at −80° C. for target gene analysis.
(§5) About 0.1 g of liver tissue, skeletal muscle, or adipose tissue was used for the homogenate samples. Samples were powdered under liquid nitrogen and homogenized for 20 seconds in 500 μL buffer containing 20 mM Tris-HCl (pH 7.4 at 4° C.), 2% SDS, 5 mM EDTA, 5 mM EGTA, 1 mM dithiothreitol (DTT), 100 mM NaF, 2 mM sodium vanadate, 0.5 mM phenylmethylsulfonyl fluoride, 10 μg/mL leupeptin, and 10 μL/mL pepstatin. The total membrane fraction was used for measurement. The protein concentration in supernatant was determined with a BCA protein assay kit (Thermo Scientific, Rockford, Ill., USA). […] The membrane was blocked with 5% slim milk in Tris-buffered saline (TBS)(Amersham BioSciences, Uppsala, Sweden) containing 0.05% Tween-20 (Bio Rad, CA, USA) and incubated overnight at 4° C. with antibodies at 1:200 dilution. Subsequently, the membrane was washed three times with TBS containing 0.05% Tween-20 and incubated with secondary antibody anti-rabbit (1:1000)(Jackson ImmunoResearch Laboratories, Inc., PA, USA) for 1 hour. Immunoreactive bands were detected with ECL reagent kit (GE Healthcare BioSciences, Buckinghamshire, UK). The intensity of Western blot signals was analyzed using AlphaEase FC software (Alpha Innotech Corporation, Randburg, South Africa). The structural protein GAPDH in the samples was used as the loading control.

[4] = tested on: PPARα; test: Liver mRNA by semi-quantitative RT-PCR: PPARα; conditions: HFD-fed mice, oral gavage once daily 4 weeks, AnK 10, 20, 40, Feno 250, Metf 300 mg/kg/day, vs HF group
Text: as §1, §2, §3

[5] = tested on: high-fat diet-fed C57BL/6J mouse; test: Body weight, tissue weights and food intake in HFD-fed mice; conditions: for Absolute tissue weight Visceral fat: sum of EWAT and RWAT
Text: as §4
The metabolic parameters, including body weight, weight gain, and food intake, were performed as the following. Body weight was daily measured at the same time throughout the study. Body weight gain is considered as the weight difference between two consecutive days. The amount of pellet food was weighted, followed by weighting the amount of remaining food after 24 hours. The difference between the two weights is defined as daily food intake.

[6] = tested on: G6Pase; test: Liver mRNA by semi-quantitative RT-PCR: G6Pase; conditions: HFD-fed mice, oral gavage once daily 4 weeks, AnK 10, 20, 40, Feno 250, Metf 300 mg/kg/day, vs HF group
Text: as §1, §2, §3

[7] = tested on: membrane GLUT4; test: Western blotting of skeletal muscular membrane GLUT4 in HFD-fed mice; conditions: skeletal muscle, AnK 10, 20, 40, Feno 250, Metf 300 mg/kg/day, as compared with the HF group
Text: as §4
as §5, with “Subsequently, the membrane was washed three times with TBS containing 0.05% Tween-20 and incubated with secondary antibody anti-rabbit (1:1000)(Jackson ImmunoResearch Laboratories, Inc., PA, USA) for 1 hour.” left out, “The structural protein GAPDH in the samples was used as the loading control.” left out

[8] = HF + AnK1: AnK 10 mg/kg/day oral gavage 4 weeks
[9] = HF + AnK2: AnK 20 mg/kg/day oral gavage 4 weeks
[10] = HF + AnK3: AnK 40 mg/kg/day oral gavage 4 weeks
[11] = HF + Metf: metformin 300 mg/kg/day oral gavage 4 weeks

SMILES: C=C(CC[C@@H](C)[C@H]1CC[C@H]2C3=C(C(=O)C[C@]12C)[C@@]1(C)CC[C@@H](O)[C@](C)(O)[C@@H]1C[C@@H]3O)C(C)C(=O)O (stereo partly drawn) [AnK, 3α,4β,7β-trihydroxy-4α-methylergosta-8,24(28)-dien-11-on-25S-26-oic acid]
mRNA levels of aP2 [1]: significantly decreased
PPARα expression levels (protein) [2]: significantly increased
expression levels of FAS (protein) [3]: significantly reduced
FAS expression levels (protein) [3]: decreased
PPARα mRNA levels [4]: increased
Absolute tissue weight BAT [5, 8]: 0.178 ± 0.007 g
Absolute tissue weight EWAT [5, 8]: 0.867 ± 0.065 g
Absolute tissue weight Liver [5, 8]: 0.946 ± 0.030 g
Absolute tissue weight MWAT [5, 8]: 0.349 ± 0.020 g
Absolute tissue weight RWAT [5, 8]: 0.323 ± 0.039 g
Absolute tissue weight Skeletal muscle [5, 8]: 0.395 ± 0.036 g
Absolute tissue weight Spleen [5, 8]: 0.090 ± 0.003 g
Final body weight [5, 8]: 28.30 ± 0.61 g
Food intake [5, 8]: 1.95 ± 0.05 g/day/mouse
Weight gain [5, 8]: 1.39 ± 0.81 g
Absolute tissue weight BAT [5, 9]: 0.172 ± 0.010 g
Absolute tissue weight EWAT [5, 9]: 0.841 ± 0.062 g
Absolute tissue weight Liver [5, 9]: 0.888 ± 0.019 g
Absolute tissue weight MWAT [5, 9]: 0.340 ± 0.013 g
Absolute tissue weight RWAT [5, 9]: 0.339 ± 0.031 g
Absolute tissue weight Skeletal muscle [5, 9]: 0.364 ± 0.022 g
Absolute tissue weight Spleen [5, 9]: 0.085 ± 0.003 g
Final body weight [5, 9]: 27.55 ± 0.72 g
Food intake [5, 9]: 1.92 ± 0.07 g/day/mouse
Weight gain [5, 9]: 0.70 ± 0.86 g
Absolute tissue weight BAT [5, 10]: 0.175 ± 0.008 g
Absolute tissue weight EWAT [5, 10]: 0.809 ± 0.058 g
Absolute tissue weight Liver [5, 10]: 0.883 ± 0.018 g
Absolute tissue weight MWAT [5, 10]: 0.332 ± 0.025 g
Absolute tissue weight RWAT [5, 10]: 0.306 ± 0.040 g
Absolute tissue weight Skeletal muscle [5, 10]: 0.364 ± 0.028 g
Absolute tissue weight Spleen [5, 10]: 0.104 ± 0.007 g
Final body weight [5, 10]: 27.48 ± 0.46 g
Food intake [5, 10]: 1.98 ± 0.04 g/day/mouse
Weight gain [5, 10]: 0.58 ± 0.35 g
Absolute tissue weight Visceral fat [5, 8]: 1.190 ± 0.093 g
Absolute tissue weight Visceral fat [5, 9]: 1.180 ± 0.106 g
Absolute tissue weight Visceral fat [5, 10]: 1.154 ± 0.096 g
mRNA levels of G6Pase [6]: significantly decreased
increase of membrane GLUT4 levels [7]: 1.52-2.20 fold

mRNA levels of G6Pase [6]: significantly decreased
SMILES: CN(C)C(=N)N=C(N)N [Metf, metformin, reference compound]
mRNA levels of aP2 [1]: significantly decreased
PPARα expression levels (protein) [2]: significantly increased
expression levels of FAS (protein) [3]: significantly reduced
FAS expression levels (protein) [3]: decreased
PPARα mRNA levels [4]: increased
Absolute tissue weight BAT [5, 11]: 0.220 ± 0.025 g
Absolute tissue weight EWAT [5, 11]: 0.813 ± 0.064 g
Absolute tissue weight Liver [5, 11]: 0.908 ± 0.031 g
Absolute tissue weight MWAT [5, 11]: 0.270 ± 0.018 g
Absolute tissue weight RWAT [5, 11]: 0.298 ± 0.027 g
Absolute tissue weight Skeletal muscle [5, 11]: 0.380 ± 0.025 g
Absolute tissue weight Spleen [5, 11]: 0.093 ± 0.006 g
Final body weight [5, 11]: 27.86 ± 0.72 g
Food intake [5, 11]: 1.89 ± 0.04 g/day/mouse
Weight gain [5, 11]: 0.92 ± 0.08 g
Absolute tissue weight Visceral fat [5, 11]: 1.111 ± 0.077 g
increase of membrane GLUT4 levels [7]: 1.86 fold
